The test system of one assay is Abcc6−/− mice. How it is done: The calcium content of heart tissue was determined.
(§1) All animals were housed in approved animal facilities at the Research Center for Natural Sciences, Hungarian Academy of Sciences. Mice were kept under routine laboratory conditions with 12 hour light-dark cycle with ad libitum access to water and chow. The RCNS, Hungarian Academy of Sciences Institutional Animal Care and Use Committees approved this study. Experiments have been conducted according to national guidelines. Cryo injury was performed and tissue calcium content was determined as described by Brampton, et al. ((2014) Am J Pathol. 184, 159-70). Calcification of the vibrissae was studied by histochemistry following the method described Klement, et al. ((2005) Mol Cell Biol. 25, 8299-310. The number of calcified vibrissae (hair capsules) was counted independently and the onset of tiptoe walking phenotype was determined by two investigators in a blinded fashion.
Abcc6^−/− mice faithfully recapitulate human PXE, with calcifying lesions found in skin, eyes and blood vessels. A drawback of the Abcc6^−/− mice is the relatively late onset of the first lesions, making this model less convenient for rapid screening of new treatments.

Assay [1] relates to Tiptoe walking (ttw) mice. How it is done:
as §1
Tiptoe walking (ttw) mice have an inactivating mutation in Enpp1 and represent a model for GACI.

Structures are written as SMILES. Where two headings read alike, the source gives them in different places.

With `O.O.O.O.O.O.O.O.O.O.O=P([O-])([O-])OP(=O)([O-])[O-].[Na+].[Na+].[Na+].[Na+]` [PPi, Sodium pyrophosphate tetrabasic decahydrate], the “cardiac calcification (ICC) induced by cryo-injury” value with Abcc6−/− mice (IP delivery, 6 mg PPi/kg body weight for 7 days, Abcc6−/− mice, data not shown) is given as “reduced”. The “PPi concentration giving maximal inhibition of ICC” value with Abcc6−/− mice (PPi in drinking water, dose-dependent inhibition, FIG. 1) is 10 mM. Moreover, the “calcification of the dermal sheet surrounding the vibrissae” value is on record as “greatly reduced” in assay [1] (10 mM oral PPi during pregnancy and lactation and continued in pups after weaning, ttw mice, FIG. 3); “no significant impact” in assay [1] (PPi provided during lactation, ttw mice); “no different from the control-treated group” in assay [1] (ttw pups treated with PPi only after weaning).

Values taken from patent US11504395B2, “Oral pyrophosphate for use in reducing tissue calcification” (Stichting Het Nederlands Kanker Instituut-Antoni van …, priority 2016, dated 2022).
